{
  "source": "patent US10624968B2",
  "about": "“Compounds for treating cancer” (Bicycle Therapeutics Limited, priority 2017, dated 2020)",
  "key": {"[1]": {"tested_on": "HT1080 cells", "test": "Cytotoxicity in HT1080 cells in presence and absence of 1 mM bacitracin (ATPlite, 24 hour exposure)", "description": "HT1080 cells (ATCC, via LGC, BIC918) Maintained in EMEM media (Sigma M2279)+10% FBS (Sigma Code F7524)+4 mM L-Glu (Invitrogen Cat 25030-024)\nI-1a and Toxins with Bacitracin—24 or 72 Hour Exposure in 96 Well Plates\nDB seeded cells in normal media, 75 μL in 96 well clear plates, ˜24 hours previous.\nHT1080—7.5 k cells/well: 50% confluent upon dosing.\nDilute in media 1:42.85=5 μL DMSO dilute+209 μL media=>use 15 μL per well\nThis gives a 5 μM top concentration for BDCs in assay\nAdd 10 µL of media±bacitracin (2 plates of each)−leave for 1 hr\nBacitracin=1 mM final concentration. This requires a 10 mM concentration with no DMSO.\nAdd 15 μL treatment per well as in Table 19, below.\nSeal plates with gas permeable membrane and incubate at 37° C.\nWashout HT1080 plates with 2×150 μL PBS at 24 h and add 100 μL fresh media\nAt t=72 h, equilibrate ATPlite reagent to room temperature. Add 10 ml buffer to each vial of lyophilized substrate. Add 100 μL reagent per well. Seal with PCR seal and cover to protect from light. Shake for 20 mins before reading luminescence"}, "[2]": {"test": "Plasma stability (LC-MS/MS assay), human plasma", "assay_type": "in vitro ADME", "details": "pH 7.4 at 37° C.", "description": "I-1a plasma stability studies were conducted in human and mouse plasma.\nIn vitro plasma stability assay measures the extent of degradation of compounds in plasma.\nPeptides or BDCs are incubated at 37° C. in plasma (mouse or human) at low micromolar concentrations for several hours. The stability is quantitatively measured by LC-MS/MS.\nAdd 8 μL of the 160 μM DMSO stock of peptide or BDC and add 8 μL of 160 μM DMSO stock of 06-34-18-N182 as internal standard to 304 μL of plasma (152 μL*2) for a final concentration of 4 μM (5% DMSO).\nIncubate at 37° C. in 100% humidity.\nPipette out 40 μL for 7 timepoints: time 0, 1 h, 2 h, 4 h, 6 h, 8 h, 24 h into a 1.5 mL Eppendorf. Store at −80° C. immediately. (total volume of samples?×40=280 μL).\nAdd to the sample the extraction solvent. The extraction solvent contains 1 part of water, 3 parts of methanol, and 3 parts of acetonitrile.\nTo the time course samples add 120 μL of extraction solvent, mix thoroughly with pipette and gently vortex.\nCentrifuge for 40 minutes at 14000 rpm at 4° C. […]\nIt is recommend to follow one transition for the peptide of BDCs to study, and one transition for the internal standard 06-34-18-N182 at the same time. The most relevant Selected Ion Reaction (SIR) and Multiple Reaction Monitoring (MRM) transitions were determined for each peptide or BDC. […]"}, "[3]": {"tested_on": "MDA-MB-231", "test": "cells", "details": "read-out: Re IC50; MDA-MB-231; 72 hours", "description": "(§1) Details of the initial cell plating procedure are described in Table 3.\n(§2) Data Details for Tables 5 and 6. Inhibition %=(Max−Sample value)/(Max−Min)*100.\n(§3) The IC50 curves were generated by 4 Parameter Logistic Model—Sigmoidal Dose-Response Model as follows: Y=Bottom+(Top−Bottom)/(1+10^((log EC50-X)*HillSlope))."}, "[4]": {"tested_on": "HCT15", "test": "cells", "details": "read-out: Re IC50; HCT15; 72 hours", "description": "as §1, §2, §3"}, "[5]": {"tested_on": "SNU-16", "test": "cells", "details": "read-out: Re IC50; SNU-16; 72 hours", "description": "as §1, §2, §3"}, "[6]": {"tested_on": "NCI-H292", "test": "cells", "details": "read-out: Re IC50; NCI-H292; 72 hours", "description": "as §1, §2, §3"}, "[7]": {"tested_on": "EBC-1", "test": "cells", "details": "read-out: Re IC50; EBC-1; 72 hours", "description": "as §1, §2, §3"}, "[8]": {"tested_on": "NCI-H1975", "test": "cells", "details": "read-out: Re IC50; NCI-H1975; 72 hours", "description": "as §1, §2, §3"}, "[9]": {"tested_on": "MOLP-8", "test": "cells", "details": "read-out: Re IC50; MOLP-8; 72 hours", "description": "as §1, §2, §3"}, "[10]": {"tested_on": "PC-3", "test": "cells", "details": "read-out: Re IC50; PC-3; 72 hours", "description": "as §1, §2, §3"}, "[11]": {"tested_on": "HCC1806", "test": "cells", "details": "read-out: Re IC50; HCC1806; 72 hours", "description": "as §1, §2, §3"}, "[12]": {"tested_on": "HT29", "test": "cells", "details": "read-out: Re IC50; HT29; 72 hours", "description": "as §1, §2, §3"}, "[13]": {"tested_on": "HT1080", "test": "cells", "details": "read-out: Re IC50; HT1080; 72 hours", "description": "as §1, §2, §3"}, "[14]": {"test": "Tolerability (body weight) in LU-01-0486 NSCLC PDX model", "assay_type": "in vivo, mouse", "description": "All the procedures related to animal handling, care and the treatment in the study were performed following the guidance of the Association for Assessment and Accreditation of Laboratory Animal Care (AAALAC). At the time of routine monitoring, the animals were daily checked for any effects of tumor growth and treatments on normal behavior such as mobility, food and water consumption (by looking only), body weight gain/loss (body weights were measured twice weekly), eye/hair matting and any other abnormal effect as stated in the protocol. Death and observed clinical signs were recorded on the basis of the numbers of animals within each subset."}, "[15]": {"test": "Body weight in HT1080 xenograft model (Example 7)", "assay_type": "in vivo", "details": "any of the doses tested (1, 3, and 10 mg/kg)", "description": "I-1a was evaluated in a HT1080 xenograft model at 1, 3, and 10 mg/kg. Additionally the ability of the binding peptide (the Bicycle+Spacer of I-1a, structure shown in Example 6) to abrogate activity when dosed at a 100-fold excess immediately before treatment with I-1a in the HT1080 xenograft model was assessed."}},
  "note": "Like-named read-outs stand apart in the source and are kept apart here. Starred links: 1 amine or outer side, 2 acyl side, 3 side chain; linkers in the order of their positions; H or OH if unused. Positions of bridges follow the written chain, without caps; N, C: chain ends. Non-standard residues stand in square brackets, D forms with d. Residues, ends and D or L forms follow the SMILES beside them. Chains are numbered I, II in the order given. ξ: configuration not given here. *: point of attachment. Dolaproine = CO[C@@H]([C@@H]1CCCN1)[C@@H](C)C(=O)O; Dil = CC[C@H](C)[C@H](NC)[C@@H](CC(=O)O)OC; TBMB = c1c(C[*:1])cc(C[*:3])cc1C[*:2]; X2 = O=C(CCCC(=O)[*:2])NCCC(=O)[*:1]; PABC = O=C(OCc1ccc(N[*:1])cc1)[*:2]; X1 = C[C@@H](N*)[C@@H](O)c1ccccc1; ξ1Nal = NC(Cc1cccc2ccccc12)C(=O)O; Cit = NC(=O)NCCC[C@H](N)C(=O)O; NMeV = CN[C@H](C(=O)O)C(C)C; ξY = NC(Cc1ccc(O)cc1)C(=O)O; ξTle = CC(C)(C)C(N)C(=O)O; ξF = NC(Cc1ccccc1)C(=O)O; ξE = NC(CCC(=O)O)C(=O)O; ξD = NC(CC(=O)O)C(=O)O; ξN = NC(=O)CC(N)C(=O)O; ξC = NC(CS)C(=O)O; ξA = CC(N)C(=O)O; Sar = CNCC(=O)O",
  "data": [
    {"smiles": "CC[C@H](C)[C@@H]([C@@H](CC(=O)N1CCC[C@H]1[C@H](OC)[C@@H](C)C(=O)N[C@H](C)[C@@H](O)c1ccccc1)OC)N(C)C(=O)[C@@H](NC(=O)[C@H](C(C)C)N(C)C(=O)OCc1ccc(NC(=O)[C@H](CCCNC(N)=O)NC(=O)[C@@H](NC(=O)CCCC(=O)NCCC(=O)N(C)CC(=O)N(C)CC(=O)N(C)CC(=O)N(C)CC(=O)N(C)CC(=O)N(C)CC(=O)N(C)CC(=O)N(C)CC(=O)N(C)CC(=O)N(C)CC(=O)NC(C)C(=O)NC2CSCc3cc4cc(c3)CSCC(NC(=O)C(C)NC(=O)C(Cc3cccc5ccccc35)NC(=O)C(CCC(=O)O)NC(=O)C(CC(N)=O)NC(=O)C(C)NC2=O)C(=O)NC(CCC(=O)O)C(=O)NC(CC(=O)O)C(=O)NC(Cc2ccccc2)C(=O)NC(Cc2ccc(O)cc2)C(=O)NC(CC(=O)O)C(=O)NC(C(C)(C)C)C(=O)NC(C(N)=O)CSC4)C(C)C)cc1)C(C)C", "note": "(stereo partly drawn) [Compound I-1a] (I: [Sar][Sar][Sar][Sar][Sar][Sar][Sar][Sar][Sar][Sar][ξA][ξC][ξA][ξN][ξE][ξ1Nal][ξA][ξC][ξE][ξD][ξF][ξY][ξD][ξTle][ξC]-NH2 / II: V[Cit][PABC][NMeV]V[Dil][Dolaproine]-X1; linker I:12-I:18-I:25 via TBMB; linker I:N-II:N via X2)", "values": [
      {"measurement": "IC50", "setting": "[1]; read-out: IC50 with 1 mM bacitracin, 24 hour exposure, + 1 mM bacitracin (PDI inhibitor)", "result": 7.3, "unit": "nM"},
      {"measurement": "IC50", "setting": "[1]; read-out: Standard IC50, 24 hour exposure (high MT1 expression), no block", "result": 5.3, "unit": "nM"},
      {"measurement": "half-life at 1 μM", "setting": "[2]", "result": "> 24", "unit": "h"},
      {"measurement": "remaining at 24 h, 1 μM", "setting": "[2]; read-out: % remained after 24 hours incubation", "result": 96, "unit": "%"},
      {"measurement": "IC50", "setting": "[3]", "result": 211, "unit": "nM"},
      {"measurement": "IC50", "setting": "[4]", "result": "> 5000", "unit": "nM"},
      {"measurement": "IC50", "setting": "[5]", "result": 63.3, "unit": "nM"},
      {"measurement": "IC50", "setting": "[6]", "result": 56.2, "unit": "nM"},
      {"measurement": "IC50", "setting": "[7]", "result": 35.7, "unit": "nM"},
      {"measurement": "IC50", "setting": "[8]", "result": 24.2, "unit": "nM"},
      {"measurement": "IC50", "setting": "[9]", "result": 197, "unit": "nM"},
      {"measurement": "IC50", "setting": "[10]", "result": 102, "unit": "nM"},
      {"measurement": "IC50", "setting": "[11]", "result": 15.2, "unit": "nM"},
      {"measurement": "IC50", "setting": "[12]", "result": 219, "unit": "nM"},
      {"measurement": "IC50", "setting": "[13]", "result": 21.4, "unit": "nM"},
      {"measurement": "effect on body weight (in words)", "setting": "[14]; 1 mg/kg", "result": "no significant effect on body weight"},
      {"measurement": "effect on body weight (in words)", "setting": "[14]; 3 mg/kg", "result": "without significant effect on body weight"},
      {"measurement": "effect on body weight (in words)", "setting": "[15]", "result": "No dose-related effects on body weight"}
    ]}
  ]
}
